According to patent US9156845B2, “4-(substituted amino)-7H-pyrrolo[2,3-d] pyrimidines as LRRK2 inhibitors” (Pfizer Inc., priority 2012, dated 2015):

How the values were obtained:
mutant G2019S LRRK2 = mutant G2019S LRRK2 (Homo sapiens (Human), UniProt Q5S007, G2019S); experiment: LRRK2 Lantha Screen kinase assay, mutant enzyme; type: biochemical; settings: geometric mean of 2-5 determinations unless otherwise indicated (a: >=6 determinations; b: single determination)
CDK5 = CDK5 (Homo sapiens (Human), UniProt Q00535); experiment: ActivX kinase probe assay (human PBMC); type: binding; settings: CDK5, read-out: percent inhibition
eEF2K = eEF2K (Homo sapiens (Human), UniProt O00418); experiment: ActivX kinase probe assay (human PBMC); type: binding; settings: eEF2K, read-out: percent inhibition
EphA1 = EphA1 (Homo sapiens (Human), UniProt P21709); experiment: ActivX kinase probe assay (human PBMC); type: binding; settings: EphA1, read-out: percent inhibition
GSK3A = GSK3A (Homo sapiens (Human), UniProt P49840); experiment: ActivX kinase probe assay (human PBMC); type: binding; settings: GSK3A, read-out: percent inhibition
GSK3B = GSK3B (Homo sapiens (Human), UniProt P49841); experiment: ActivX kinase probe assay (human PBMC); type: binding; settings: GSK3B, read-out: percent inhibition
HPK1 = HPK1 (Homo sapiens (Human), UniProt Q92918); experiment: ActivX kinase probe assay (human PBMC); type: binding; settings: HPK1, read-out: percent inhibition
IKKe, TBK1 = experiment: ActivX kinase probe assay (human PBMC); type: binding
IRAK1 = IRAK1 (Homo sapiens (Human), UniProt P51617); experiment: ActivX kinase probe assay (human PBMC); type: binding; settings: IRAK1, read-out: percent inhibition
JNK1, JNK2, JNK3 = experiment: ActivX kinase probe assay (human PBMC); type: binding
KHS1 = KHS1 (Homo sapiens (Human), UniProt Q9Y4K4); experiment: ActivX kinase probe assay (human PBMC); type: binding; settings: KHS1, read-out: percent inhibition
KSR1, KSR2 = experiment: ActivX kinase probe assay (human PBMC); type: binding
LATS1 = LATS1 (Homo sapiens (Human), UniProt O95835); experiment: ActivX kinase probe assay (human PBMC); type: binding; settings: LATS1, read-out: percent inhibition
LRRK2 = LRRK2 (Homo sapiens (Human), UniProt Q5S007); experiment: ActivX kinase probe assay (human PBMC); type: binding; settings: 0.1 μM, read-out: percent inhibition
MAP2K1, MAP2K2 = experiment: ActivX kinase probe assay (human PBMC); type: binding
MAP2K6 = MAP2K6 (Homo sapiens (Human), UniProt P52564); experiment: ActivX kinase probe assay (human PBMC); type: binding; settings: MAP2K6, read-out: percent inhibition
MAP3K3 = MAP3K3 (Homo sapiens (Human), UniProt Q99759); experiment: ActivX kinase probe assay (human PBMC); type: binding; settings: MAP3K3, read-out: percent inhibition
MST3 = MST3 (Homo sapiens (Human), UniProt Q9Y6E0); experiment: ActivX kinase probe assay (human PBMC); type: binding; settings: MST3, read-out: percent inhibition
MST4, YSK1 = experiment: ActivX kinase probe assay (human PBMC); type: binding
NEK9 = NEK9 (Homo sapiens (Human), UniProt Q8TD19); experiment: ActivX kinase probe assay (human PBMC); type: binding; settings: NEK9, read-out: percent inhibition
PIP5K3 = PIP5K3 (Homo sapiens (Human), UniProt Q9Y2I7); experiment: ActivX kinase probe assay (human PBMC); type: binding; settings: PIP5K3, read-out: percent inhibition
PKR = PKR (Homo sapiens (Human), UniProt P19525); experiment: ActivX kinase probe assay (human PBMC); type: binding; settings: PKR, read-out: percent inhibition
PRPK = PRPK (Homo sapiens (Human), UniProt Q96S44); experiment: ActivX kinase probe assay (human PBMC); type: binding; settings: read-out: percent inhibition
Procedure: Certain of the compounds of the present invention were assessed for kinase selectivity using a commercially available ActiveX targeted kinase probe in which the tissue employed was human peripheral blood mononuclear cells (PBMC). The test compounds were provided to ActivX Biosciences, Inc., 11025 North Torrey Pines Road, Suite 120; LaJolla, Calif., USA 92037. The compounds were run in the ActivX proprietary kinase assay and results were obtained at compound test concentrations of 1 μM (columns 2, 4 and 6) and 0.1 μM (columns 3, 5 and 7). The results as percent inhibition obtained for the compounds of Examples 1, 4 and 217 are provided below in Table 3.

PYK2 = PYK2 (Homo sapiens (Human), UniProt Q14289); experiment: ActivX kinase probe assay (human PBMC); type: binding; settings: PYK2, read-out: percent inhibition
RIPK3 = RIPK3 (Homo sapiens (Human), UniProt Q9Y572); experiment: ActivX kinase probe assay (human PBMC); type: binding; settings: RIPK3, read-out: percent inhibition
RSK2 domain1 = RSK2 domain1 (Homo sapiens (Human), UniProt P51812); experiment: ActivX kinase probe assay (human PBMC); type: binding; settings: RSK2 domain1, read-out: percent inhibition
RSK2 domain2 = RSK2 domain2 (Homo sapiens (Human), UniProt P51812); experiment: ActivX kinase probe assay (human PBMC); type: binding; settings: RSK2 domain2, read-out: percent inhibition
SYK = SYK (Homo sapiens (Human), UniProt P43405); experiment: ActivX kinase probe assay (human PBMC); type: binding; settings: SYK, read-out: percent inhibition
TLK1 = TLK1 (Homo sapiens (Human), UniProt Q9UKI8); experiment: ActivX kinase probe assay (human PBMC); type: binding; settings: TLK1, read-out: percent inhibition
TLK2 = TLK2 (Homo sapiens (Human), UniProt Q86UE8); experiment: ActivX kinase probe assay (human PBMC); type: binding; settings: TLK2, read-out: percent inhibition
[1] = system: ZC1/HGK, ZC2/TNIK, ZC3/MINK; experiment: ActivX kinase probe assay (human PBMC); type: binding
ZC2/TNIK = ZC2/TNIK (Homo sapiens (Human), UniProt Q9UKE5); experiment: ActivX kinase probe assay (human PBMC); type: binding; settings: ZC2/TNIK, read-out: percent inhibition

PIP5K3, sequence (Q9Y2I7 whole entry): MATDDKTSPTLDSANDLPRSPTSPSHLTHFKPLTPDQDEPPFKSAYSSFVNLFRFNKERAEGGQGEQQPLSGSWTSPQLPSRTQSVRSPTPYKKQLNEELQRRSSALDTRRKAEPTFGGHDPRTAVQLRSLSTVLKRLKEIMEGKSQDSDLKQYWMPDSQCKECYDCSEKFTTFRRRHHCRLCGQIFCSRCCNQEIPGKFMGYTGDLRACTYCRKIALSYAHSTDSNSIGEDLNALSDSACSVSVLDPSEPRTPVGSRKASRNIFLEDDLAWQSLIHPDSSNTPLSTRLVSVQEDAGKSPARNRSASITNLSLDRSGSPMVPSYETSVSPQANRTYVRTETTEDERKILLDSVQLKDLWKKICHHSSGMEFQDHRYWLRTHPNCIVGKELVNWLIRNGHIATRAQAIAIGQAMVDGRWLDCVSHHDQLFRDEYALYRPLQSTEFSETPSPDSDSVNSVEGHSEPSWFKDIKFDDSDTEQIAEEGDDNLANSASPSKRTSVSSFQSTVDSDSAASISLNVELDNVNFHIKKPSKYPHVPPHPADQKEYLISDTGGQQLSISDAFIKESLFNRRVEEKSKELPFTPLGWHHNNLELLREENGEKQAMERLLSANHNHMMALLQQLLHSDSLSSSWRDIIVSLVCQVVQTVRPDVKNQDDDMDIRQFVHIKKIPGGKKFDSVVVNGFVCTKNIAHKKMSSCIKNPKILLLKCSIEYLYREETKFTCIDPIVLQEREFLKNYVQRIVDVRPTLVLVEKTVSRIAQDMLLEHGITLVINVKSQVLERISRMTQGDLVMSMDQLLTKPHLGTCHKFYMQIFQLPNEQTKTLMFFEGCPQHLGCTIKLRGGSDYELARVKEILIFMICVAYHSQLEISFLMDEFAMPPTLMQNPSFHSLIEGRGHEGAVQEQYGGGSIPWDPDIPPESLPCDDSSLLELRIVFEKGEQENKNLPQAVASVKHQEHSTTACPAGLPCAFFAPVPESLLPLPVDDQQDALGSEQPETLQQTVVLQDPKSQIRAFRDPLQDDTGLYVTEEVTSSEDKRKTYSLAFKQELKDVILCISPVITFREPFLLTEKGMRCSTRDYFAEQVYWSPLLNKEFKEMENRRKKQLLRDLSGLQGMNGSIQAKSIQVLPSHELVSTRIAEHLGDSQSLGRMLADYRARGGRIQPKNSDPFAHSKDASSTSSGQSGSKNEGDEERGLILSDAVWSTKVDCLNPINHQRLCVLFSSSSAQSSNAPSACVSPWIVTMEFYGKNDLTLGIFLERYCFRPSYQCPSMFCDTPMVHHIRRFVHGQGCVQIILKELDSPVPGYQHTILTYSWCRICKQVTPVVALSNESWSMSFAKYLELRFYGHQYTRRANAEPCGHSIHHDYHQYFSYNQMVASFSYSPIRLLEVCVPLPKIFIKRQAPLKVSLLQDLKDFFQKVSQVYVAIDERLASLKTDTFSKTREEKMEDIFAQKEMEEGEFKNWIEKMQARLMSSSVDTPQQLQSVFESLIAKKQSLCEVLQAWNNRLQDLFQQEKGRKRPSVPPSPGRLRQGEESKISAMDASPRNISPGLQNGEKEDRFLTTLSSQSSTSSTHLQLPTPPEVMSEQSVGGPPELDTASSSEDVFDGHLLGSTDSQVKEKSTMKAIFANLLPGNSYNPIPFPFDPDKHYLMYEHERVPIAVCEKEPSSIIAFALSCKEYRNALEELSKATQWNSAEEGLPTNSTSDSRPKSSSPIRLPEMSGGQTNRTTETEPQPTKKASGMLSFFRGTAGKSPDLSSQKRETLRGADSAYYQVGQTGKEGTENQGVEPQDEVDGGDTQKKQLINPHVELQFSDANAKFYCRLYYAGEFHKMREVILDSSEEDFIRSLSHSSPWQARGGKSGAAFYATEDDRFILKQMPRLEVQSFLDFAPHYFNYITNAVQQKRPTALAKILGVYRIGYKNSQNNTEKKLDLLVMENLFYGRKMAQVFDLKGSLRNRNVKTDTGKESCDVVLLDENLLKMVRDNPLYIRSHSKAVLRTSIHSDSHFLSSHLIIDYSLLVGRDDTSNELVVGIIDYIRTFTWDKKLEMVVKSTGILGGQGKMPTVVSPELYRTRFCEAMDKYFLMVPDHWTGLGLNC
RSK2 domain1, sequence (P51812 whole entry, the tested form may be a part): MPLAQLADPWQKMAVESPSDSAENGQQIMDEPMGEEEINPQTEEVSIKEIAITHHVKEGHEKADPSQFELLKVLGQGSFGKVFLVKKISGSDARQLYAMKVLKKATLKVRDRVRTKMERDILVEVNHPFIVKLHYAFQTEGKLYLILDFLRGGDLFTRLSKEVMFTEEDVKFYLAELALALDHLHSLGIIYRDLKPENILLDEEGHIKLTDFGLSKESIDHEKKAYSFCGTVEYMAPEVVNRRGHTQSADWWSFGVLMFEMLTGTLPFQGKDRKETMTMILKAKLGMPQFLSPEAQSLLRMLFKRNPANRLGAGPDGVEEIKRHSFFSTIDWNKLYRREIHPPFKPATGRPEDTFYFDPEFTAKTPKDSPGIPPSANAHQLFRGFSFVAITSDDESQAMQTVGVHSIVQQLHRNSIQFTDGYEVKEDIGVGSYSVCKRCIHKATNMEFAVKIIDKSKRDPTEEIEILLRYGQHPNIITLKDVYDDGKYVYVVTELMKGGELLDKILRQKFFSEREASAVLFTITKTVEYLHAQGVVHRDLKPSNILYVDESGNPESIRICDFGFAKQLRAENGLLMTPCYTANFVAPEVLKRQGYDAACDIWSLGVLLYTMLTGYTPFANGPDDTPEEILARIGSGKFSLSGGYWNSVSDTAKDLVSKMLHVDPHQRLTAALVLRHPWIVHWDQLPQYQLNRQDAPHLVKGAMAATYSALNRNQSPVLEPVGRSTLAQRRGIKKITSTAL
RSK2 domain2, sequence (P51812 whole entry, the tested form may be a part): as above
CDK5, sequence (Q00535 whole entry): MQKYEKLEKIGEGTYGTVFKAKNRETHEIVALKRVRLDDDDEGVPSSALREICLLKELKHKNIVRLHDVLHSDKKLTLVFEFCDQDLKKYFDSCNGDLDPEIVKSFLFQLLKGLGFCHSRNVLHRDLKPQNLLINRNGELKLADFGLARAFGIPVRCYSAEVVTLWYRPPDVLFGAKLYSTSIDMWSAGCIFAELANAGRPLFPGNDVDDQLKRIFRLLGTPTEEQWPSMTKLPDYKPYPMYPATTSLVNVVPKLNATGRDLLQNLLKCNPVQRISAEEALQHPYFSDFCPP
KHS1, sequence (Q9Y4K4 whole entry): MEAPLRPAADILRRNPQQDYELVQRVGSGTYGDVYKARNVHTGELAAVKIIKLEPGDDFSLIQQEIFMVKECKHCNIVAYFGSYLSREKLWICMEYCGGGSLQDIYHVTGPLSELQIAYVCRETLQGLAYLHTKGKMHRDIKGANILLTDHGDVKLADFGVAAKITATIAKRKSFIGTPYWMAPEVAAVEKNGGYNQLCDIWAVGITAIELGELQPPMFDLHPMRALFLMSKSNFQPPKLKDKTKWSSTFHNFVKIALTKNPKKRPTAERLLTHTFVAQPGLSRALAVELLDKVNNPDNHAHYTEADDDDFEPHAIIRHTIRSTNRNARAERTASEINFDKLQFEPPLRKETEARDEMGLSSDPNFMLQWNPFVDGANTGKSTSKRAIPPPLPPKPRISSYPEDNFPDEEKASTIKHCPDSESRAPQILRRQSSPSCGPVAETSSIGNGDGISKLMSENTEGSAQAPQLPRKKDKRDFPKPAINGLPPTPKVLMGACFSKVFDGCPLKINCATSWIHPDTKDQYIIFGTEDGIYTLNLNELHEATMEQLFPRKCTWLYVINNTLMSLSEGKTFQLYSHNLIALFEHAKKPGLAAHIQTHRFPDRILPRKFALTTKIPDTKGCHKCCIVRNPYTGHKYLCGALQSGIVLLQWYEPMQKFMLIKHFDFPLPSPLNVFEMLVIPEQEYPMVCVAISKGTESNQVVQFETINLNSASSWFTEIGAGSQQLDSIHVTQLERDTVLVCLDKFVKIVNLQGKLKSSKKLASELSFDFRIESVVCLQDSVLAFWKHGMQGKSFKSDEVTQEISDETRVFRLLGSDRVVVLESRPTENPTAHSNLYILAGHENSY
IRAK1, sequence (P51617 whole entry): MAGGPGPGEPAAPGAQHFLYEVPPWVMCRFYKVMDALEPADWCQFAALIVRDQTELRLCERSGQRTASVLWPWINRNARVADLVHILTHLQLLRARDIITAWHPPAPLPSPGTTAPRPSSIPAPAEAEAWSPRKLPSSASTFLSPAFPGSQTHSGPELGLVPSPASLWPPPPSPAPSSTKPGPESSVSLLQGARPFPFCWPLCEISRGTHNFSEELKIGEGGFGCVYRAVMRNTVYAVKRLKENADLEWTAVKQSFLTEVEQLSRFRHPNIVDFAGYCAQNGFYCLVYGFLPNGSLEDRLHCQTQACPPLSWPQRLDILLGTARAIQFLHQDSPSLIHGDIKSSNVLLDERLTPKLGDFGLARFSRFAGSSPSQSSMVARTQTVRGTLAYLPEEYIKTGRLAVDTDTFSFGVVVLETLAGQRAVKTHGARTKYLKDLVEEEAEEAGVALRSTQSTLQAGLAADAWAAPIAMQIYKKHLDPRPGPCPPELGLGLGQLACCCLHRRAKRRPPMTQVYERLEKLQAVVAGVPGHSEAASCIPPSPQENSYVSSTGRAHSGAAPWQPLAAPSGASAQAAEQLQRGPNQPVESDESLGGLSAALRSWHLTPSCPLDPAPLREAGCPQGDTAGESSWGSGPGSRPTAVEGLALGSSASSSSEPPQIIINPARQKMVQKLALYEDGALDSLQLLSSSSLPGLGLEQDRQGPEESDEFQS
PRPK, sequence (Q96S44 whole entry): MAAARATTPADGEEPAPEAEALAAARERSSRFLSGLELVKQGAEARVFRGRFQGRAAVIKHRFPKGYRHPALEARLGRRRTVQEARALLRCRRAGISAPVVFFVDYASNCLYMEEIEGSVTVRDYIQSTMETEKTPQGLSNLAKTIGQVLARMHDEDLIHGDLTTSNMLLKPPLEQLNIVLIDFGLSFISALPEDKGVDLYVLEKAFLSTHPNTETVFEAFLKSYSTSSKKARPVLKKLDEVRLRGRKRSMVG

SMILES: Cn1cc(-c2c[nH]c3ncnc(N4CCOCC4)c23)cc1C#N [Example 217, 1-methyl-4-[4-(morpholin-4-yl)-7H-pyrrolo[2,3-d]pyrimidin-5-yl]-1H-pyrrole-2-carbonitrile]
- IC50 (mutant G2019S LRRK2): 13 nM
- inhibition at 0.1 µM (CDK5; 0.1 μM): 0.5%
- inhibition at 1 µM (CDK5; 1 μM): 7.9%
- inhibition at 0.1 µM (eEF2K; 0.1 μM): -12.1%
- inhibition at 1 µM (eEF2K; 1 μM): 2.2%
- inhibition at 0.1 µM (EphA1; 0.1 μM): 11.1%
- inhibition at 1 µM (EphA1; 1 μM): -16.1%
- inhibition at 0.1 µM (GSK3A; 0.1 μM): 0.6%
- inhibition at 1 µM (GSK3A; 1 μM): 8.9%
- inhibition at 0.1 µM (GSK3B; 0.1 μM): -4.3%
- inhibition at 1 µM (GSK3B; 1 μM): 12.4%
- inhibition at 0.1 µM (HPK1; 0.1 μM): -13.7%
- inhibition at 1 µM (HPK1; 1 μM): 1.7%
- percent inhibition (IKKe, TBK1; 0.1 μM): 2.3%
- percent inhibition (IKKe, TBK1; 1 μM): 13.3%
- inhibition at 0.1 µM (IRAK1; 0.1 μM): -1.7%
- inhibition at 1 µM (IRAK1; 1 μM): 7.5%
- percent inhibition (JNK1, JNK2, JNK3; 0.1 μM): −18.2%
- percent inhibition (JNK1, JNK2, JNK3; 1 μM): −6.4%
- inhibition at 0.1 µM (KHS1; 0.1 μM): 10.7%
- inhibition at 1 µM (KHS1; 1 μM): 7.6%
- percent inhibition (KSR1, KSR2; 0.1 μM): −6.2%
- percent inhibition (KSR1, KSR2; 1 μM): −6.8%
- inhibition at 0.1 µM (LATS1; 0.1 μM): -3.9%
- inhibition at 1 µM (LATS1; 1 μM): 1.9%
- inhibition at 0.1 µM (LRRK2): 88.4%
- percent inhibition (MAP2K1, MAP2K2; 0.1 μM): 10.9%
- percent inhibition (MAP2K1, MAP2K2; 1 μM): −2.6%
- inhibition at 0.1 µM (MAP2K6; 0.1 μM): 11.3%
- inhibition at 1 µM (MAP2K6; 1 μM): -0.1%
- inhibition at 0.1 µM (MAP3K3; 0.1 μM): -3.4%
- inhibition at 1 µM (MAP3K3; 1 μM): -6.7%
- inhibition at 0.1 µM (MST3; 0.1 μM): 6.7%
- inhibition at 1 µM (MST3; 1 μM): 10.9%
- percent inhibition (MST4, YSK1; 0.1 μM): 5.3%
- percent inhibition (MST4, YSK1; 1 μM): 9.9%
- inhibition at 0.1 µM (NEK9; 0.1 μM): -11%
- inhibition at 1 µM (NEK9; 1 μM): 1.5%
- inhibition at 0.1 µM (PIP5K3; 0.1 μM): 16%
- inhibition at 1 µM (PIP5K3; 1 μM): 2.5%
- inhibition at 0.1 µM (PKR; 0.1 μM): -7.7%
- inhibition at 1 µM (PKR; 1 μM): 1.8%
- inhibition at 0.1 µM (PRPK; 0.1 μM): 2.6%
- inhibition at 1 µM (PRPK; 1 μM): 12.5%
- inhibition at 0.1 µM (PYK2; 0.1 μM): -1%
- inhibition at 1 µM (PYK2; 1 μM): 8.4%
- inhibition at 0.1 µM (RIPK3; 0.1 μM): -7.3%
- inhibition at 1 µM (RIPK3; 1 μM): -9.1%
- inhibition at 0.1 µM (RSK2 domain1; 0.1 μM): 13.2%
- inhibition at 1 µM (RSK2 domain1; 1 μM): 61.6%
- inhibition at 0.1 µM (RSK2 domain2; 0.1 μM): -4.1%
- inhibition at 1 µM (RSK2 domain2; 1 μM): 2.8%
- inhibition at 0.1 µM (SYK; 0.1 μM): -2%
- inhibition at 1 µM (SYK; 1 μM): -5.1%
- inhibition at 0.1 µM (TLK1; 0.1 μM): 7.6%
- inhibition at 1 µM (TLK1; 1 μM): 16.7%
- inhibition at 0.1 µM (TLK2; 0.1 μM): 11.1%
- inhibition at 1 µM (TLK2; 1 μM): 16%
- percent inhibition ([1]; 0.1 μM): −1.2%
- percent inhibition ([1]; 1 μM): 7.7%
- inhibition at 0.1 µM (ZC2/TNIK; 0.1 μM): -10.7%
- inhibition at 1 µM (ZC2/TNIK; 1 μM): 3.9%
